Entries after “also recorded” stand apart in the source; their conditions may differ.
Legend:
TNF-α = TNF-α gene expression in co-cultured tissues (RT-PCR); type: cell-based, human; conditions: vs control
Text: (§1) FIG. 7. Effect of type I polymerized collagen on the gene expression of pro- and anti-inflammatory cytokines and factors in the tissues of cartilage and synovial tissue co-cultures of patients with rheumatoid arthritis (RA). (A) Quantification of TNF-α, IL-6 and IL-10 gene expression and (B) Quantification of IL-23 and Foxp3 gene expression by RT-PCR in synovial membrane tissues and cartilage co-cultured for 7 days. The bars show the mean±SD of the transcript levels of the samples normalized through the expression of the housekeeping gene GADPH determined by 2ΔΔCt. The data represent the mean±SD of 9 cartilage and synovial co-cultures from RA patients. Each culture was performed in triplicate for each condition. Basal: tissue in basal conditions.
(§2) FIG. 8. Effect of type I polymerized collagen on the gene expression of pro- and anti-inflammatory cytokines and factors in the tissues of cartilage and synovial co-cultures of patients with Osteoarthritis (OA). (A) Quantification of IL-1β, INF-α, IL-6 and IL-10 gene expression, (B) IL-23 and Foxp3 by RT-PCR in co-cultured cartilage and synovial membrane tissues for 7 days. The bars show the mean±SD of the transcript levels of the samples normalized through the expression of the housekeeping gene GADPH determined by 2ΔΔCt. The data represent the mean±SD of 8 co-cultures from patients with OA. […]

dormant cells = conditions: Jou I-M 2005; Furuzawa-Carballeda 2003; cited from earlier work
[1] = test system: dendritic (CD4−/CD11c+) cells; assay: FACS of spleen CD11c+ dendritic cells in CIA models; type: in vivo, mice; conditions: CIA model
Experimental: (§3) Early Arthritis Model. Fifty mice with the same characteristics were immunized at the base of the tail with 100 μg of chicken type II collagen emulsified in complete Freund's adjuvant. The boost was applied on day 21 at the base of the tail with 100 μg of type II collagen emulsified with Freund's incomplete adjuvant. On the same boosting day, the treatments (a-d) were applied every week for six weeks. Three animals were euthanized in the sixth week and three in the thirteenth week. The spleen, lymph nodes, joint tissue, liver, lungs, kidneys and heart were obtained in order to assess the inflammatory infiltrate, the predominant cell populations and the expression of pro- and anti-inflammatory cytokines.
(§4) Established Arthritis Model. Arthritis was induced as in the previous model in 50 mice and the treatments were applied intramuscularly, after 2 weeks of the boost, every week for 6 weeks. Three animals were euthanized in the eighth week and three in the fifteenth week. The spleen, lymph nodes, joint tissue, liver, lungs, kidneys and heart were obtained in order to assess the inflammatory infiltrate, the predominant cell populations and the expression of pro- and anti-inflammatory cytokines.
Cytometric evaluation. […]
FIG. 12. […] The expression of CD11c was detected by flow cytometry. The results are representative of 6 mice analyzed in each group. […]

Foxp3 = Foxp3 gene expression in co-cultured tissues (RT-PCR); type: cell-based, human; conditions: vs control
Text: as §1, §2

Th2 (CD4+/IL-4+) cells = assay: FACS of spleen Th2 cells in CIA models; type: in vivo, mice; conditions: early arthritis model, first sacrifice only
Experimental: as §3
(§5) Established Arthritis Model. Arthritis was induced as in the previous model in 50 mice and the treatments were applied intramuscularly, after 2 weeks of the boost, every week for 6 weeks. Three animals were euthanized in the eighth week and three in the fifteenth week. The spleen, lymph nodes, joint tissue, liver, lungs, kidneys and heart were obtained in order to assess the inflammatory infiltrate, the predominant cell populations and the expression of pro- and anti-inflammatory cytokines. […]
(§6) FIG. 10. […] The intracellular production of IL-17A, IL-4, IFN-γ and Foxp3 by CD4+ T cells was detected by flow cytometry. The results are representative of 6 mice analyzed in each group. […]

Th17 (CD4+/IL-17+) cells = assay: FACS of spleen Th17 cells in CIA models; type: in vivo, mice; conditions: CIA model, fold
Experimental: as §3, §5, §6

mice with CIA = assay: Histopathological analysis of hind legs, collagen-induced arthritis (CIA) models; type: in vivo; conditions: H&E and PAS, intramuscular weekly for 6 weeks
Experimental: as §3, §4
Histological evaluation. The inflammatory infiltrate and tissue architecture were evaluated by H&E and Masson's trichrome staining and the content of proteoglycans, with the PAS technique. […]

IL-1β = IL-1β in co-culture supernatants (ELISA); type: cell-based, human; conditions: RA or OA co-cultures, day 7 of culture
Experimental: Cartilage and synovium co-cultures were performed from 9 patients with RA and 8 patients with OA who underwent hip or knee replacement (Table 1). Joint tissue was cultured with (a) RPMI (control), (b) 1% type I polymerized collagen, for 7 days. The supernatants and tissues of days 1 and 7 were […] collected. In the culture supernatants the concentration of IL-1β, IL-8, IL-10, IL-12, TNF-α and IFN-γ was quantified by ELISA and the results were normalized with total protein concentration. The expression of IL-1β and TNF-α was evaluated using histochemistry.
FIG. 3. Effect of type I polymerized collagen on IL-1β expression in supernatants of cartilage and synovium co-cultures from patients with rheumatoid arthritis (RA) or osteoarthritis (OA). The data represent the mean±SD of 9 co-cultures of cartilage and synovial tissue from patients with RA and of 8 co-cultures of patients with OA. Each culture was performed in triplicate for each condition. The results were normalized with the total protein concentration of the supernatant, determined by the Folin-Lowry micromethod. AR: left panel. OA: panel on the right. Basal: tissue in basal conditions.

[2] = co-cultures from patients with OA
[3] = co-cultures from patients with RA
[4] = severe to semi-critical disease

Substance: collagen-polyvinylpyrrolidone [type I polymerized collagen]
- gene expression of TNF-α (TNF-α; [2]): negative regulation
- transcription of TNF-α gene (TNF-α; [3]): negatively regulated
- response of dormant cells (dormant cells): does not induce any response
- CD11c+ population (antigenic presentation) [1]: decrease
- gene expression of Foxp3 (Foxp3; [2]): positive regulation
- transcription of FOXP3 gene (Foxp3; [3]): positively
- number of circulating Th2 cells (Th2 (CD4+/IL-4+) cells): modified
- fever, alterations in heart rate, respiratory rate, headache and arthralgias (SARS-CoV2 (Covid-19); after 7 days): disappearance
- adverse effects (SARS-CoV2 (Covid-19); [4]): No adverse effects were detected, except for pain at the application site
- persistence of pain at the application site (SARS-CoV2 (Covid-19); [4]): 5 to 15 min
- negative regulation of the subpopulation of Th17 cells (Th17 (CD4+/IL-17+) cells): 1.5-2.0 ×
- histopathology of joint tissue (inflammation, tissue architecture) (mice with CIA): decreased the degree of inflammation and preserved the joint structure; also recorded: maintained a tissue architecture similar to normal
- expression of IL-1β vs. the controls in the supernatants (IL-1β): decreased

— US20230285516A1 (priority 2020, published 2023)
